Assay results from PMC8311653, “Design, Synthesis, In Vitro and In Vivo Characterization of Selective NKCC1 Inhibitors for the Treatment of Core Symptoms in Down Syndrome” (Journal of Medicinal Chemistry, 2021).
Read-outs that look alike come from different tables or passages of the source.

Legend:
NKCC2 [1] = target: T1, NKCC2 (Homo sapiens, UniProt Q13621); design: method as in PMID 32818158; details: 10 μM; cited from earlier work
T1 construct: host or cells: HEK293
T1 sequence (Q13621 1-1099): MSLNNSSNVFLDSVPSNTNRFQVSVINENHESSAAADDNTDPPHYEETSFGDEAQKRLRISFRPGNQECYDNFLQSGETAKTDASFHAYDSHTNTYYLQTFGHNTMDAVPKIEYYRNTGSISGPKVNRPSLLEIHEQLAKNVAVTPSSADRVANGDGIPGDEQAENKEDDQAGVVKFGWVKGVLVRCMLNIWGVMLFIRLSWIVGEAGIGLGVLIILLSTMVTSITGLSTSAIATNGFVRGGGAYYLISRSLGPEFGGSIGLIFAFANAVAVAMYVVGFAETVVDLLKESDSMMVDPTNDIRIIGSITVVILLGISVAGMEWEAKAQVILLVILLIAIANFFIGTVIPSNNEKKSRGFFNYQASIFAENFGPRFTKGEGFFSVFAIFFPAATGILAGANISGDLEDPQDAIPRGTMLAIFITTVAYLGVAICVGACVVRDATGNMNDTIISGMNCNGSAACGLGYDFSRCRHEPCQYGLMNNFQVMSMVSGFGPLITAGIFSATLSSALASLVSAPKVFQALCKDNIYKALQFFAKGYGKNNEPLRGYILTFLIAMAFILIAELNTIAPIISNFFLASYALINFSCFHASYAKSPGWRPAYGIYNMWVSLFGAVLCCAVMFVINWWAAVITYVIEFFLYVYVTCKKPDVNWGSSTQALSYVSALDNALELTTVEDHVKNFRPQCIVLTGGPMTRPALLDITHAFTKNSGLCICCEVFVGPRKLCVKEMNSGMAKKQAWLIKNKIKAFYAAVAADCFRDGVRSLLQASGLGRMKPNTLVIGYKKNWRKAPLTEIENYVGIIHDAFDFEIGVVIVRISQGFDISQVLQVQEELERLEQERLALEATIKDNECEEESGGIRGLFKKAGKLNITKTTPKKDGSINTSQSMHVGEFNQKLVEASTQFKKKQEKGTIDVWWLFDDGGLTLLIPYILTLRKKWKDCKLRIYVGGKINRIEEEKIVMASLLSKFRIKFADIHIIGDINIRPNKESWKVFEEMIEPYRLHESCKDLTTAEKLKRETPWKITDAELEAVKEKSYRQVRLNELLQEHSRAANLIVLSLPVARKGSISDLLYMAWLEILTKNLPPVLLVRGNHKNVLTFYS

NKCC2 [2] = target: T1, NKCC2; assay: Cl- influx assay in NKCC2-transfected HEK293 cells; type: cell-based; details: 10 μM
Procedure: HEK293 cells were cultured in Dulbecco’s modified Eagle’s medium (DMEM) supplemented with 10% fetal bovine serum, 1% L-glutamine, 100 U/mL penicillin, and 100 μg/mL streptomycin and maintained at 37 °C in a 5% CO2 humidified atmosphere. […] To assess KCC2 activity (Tl influx assay), cells were transfected with 8 μg of KCC2[54] subcloned in the PRK5 plasmid or mock control (empty vector) and 16 μL of Lipofectamin 2000. After 4 h, the cells were collected and plated in 96-well black-walled, clear-bottomed plates at a density of 2.5 × 10^4. After 48 h, cells were used for the Cl^– or Tl influx assays. All reagents were purchased from Life Technologies, unless otherwise specified.
After 30 min of incubation, plates were loaded into a Victor 3V (PerkinElmer) multiplate reader equipped with an automatic liquid injector system, and fluorescence of Cl^–-sensitive mbYFPQS was recorded with excitation at 485 nm and emission at 535 nm. For each well, fluorescence was first recorded for 20 s of the baseline and for 60 s after delivery of a NaCl concentrated solution (74 mM final concentration in the assay well). Fluorescence of Cl^–-sensitive mbYFPQS is inversely correlated to the intracellular Cl^– concentration;[53] therefore, chloride influx into the cells determined a decrease in mbYFPQS fluorescence. […]

SMILES: CN(C)S(=O)(=O)c1cc(C(=O)O)ccc1NCCCCCCCC(F)(F)F [Compound 1, 3-(-N,N-Dimethylsulfamoyl)-4-(8,8,8-trifluorooctylamino)benzoic Acid]
- inhibition of NKCC2 in the Cl- influx assay (NKCC2 [1]): did not show any significant inhibition

SMILES: CN(C)S(=O)(=O)c1cc(C(=O)O)c(O)cc1NCCCCCCCC(F)(F)F [Compound 40, 5-(N,N-Dimethylsulfamoyl)-2-hydroxy-4-((8,8,8-trifluorooctyl)amino)benzoic Acid]
- inhibition of NKCC2 in the Cl- influx assay (NKCC2 [2]): did not show any significant inhibition
